Here are results for six compounds from US7534913B2, “Crystalline form of nateglinide” (Teva Pharmaceutica Industries Ltd., priority 2002, dated 2009).

A short description of series [1]: Thermal stability: transformation of crystalline forms on drying or heating, form by XRPD. Type of series: physicochemical. As to conditions: for form obtained upon drying / heating: generally about 40° C. to about 80° C. Here is the method: The various crystalline forms are related to each other in that drying of one form may result in a transformation to another form, namely nateglinide Forms A, B, D, E, F, G, H, I, J, K, L, M, N, Q, S, T, V, Z, α, β, δ,γ, ε, θ and Ω. The drying is carried out by heating a sample under ambient or reduced pressure. Generally, a preferred temperature is from about 40° C. to about 80° C., more preferably under reduced pressure. […] The term “stable” as used herein refers to a polymorphic change of less than about 5% by weight, more preferably less than about 2%, particularly for Form δ.
Form γ may also be prepared by heating Form J containing seeds of Form γ under similar conditions.
• X-Ray diffraction was performed on X-Ray powder diffractometer, Scintag®, variable goniometer, Cu-tube, solid state detector. Sample holder: A round standard aluminum sample holder with round zero background quartz plate. • The sample was put on the sample holder and immediately analyzed as is. Scanning parameters: Range: 2-40 deg 2θ, Continuos Scan, Rate: 3 deg./min. DSC: • DSC821^e Mettler Toledo®, Sample weight: 3-5 mg, Heating rate: 10° C./min, Number of holes in the crucible: 3 TGA: • Mettler TG50®, Sample weight: 7-15 mg, Heating rate: 10° C./min FTIR: • Perkin-Elmer®, Spectrum One FTIR spectrometer, Range: 4000-400 cm-1, no. of scans: 16, resolution: 4.0 cm-1, DRIFT technique.
Nateglinide Form delta (10 grams), with about 3% heptane (wt/wt), was dried in a fluidized bed drier for 4 hours at 60° C.
Sample of nateglinide form U (˜1 g) was introduced into a 6-gram vial and heated over 8.5 h in a 100° C. oil bath. The vial were extracted from the bath.
Sample of nateglinide form U (˜0.5 g) was heated to 120° C. for 1 h in an atmospheric pressure.
Sample of nateglinide form δ (˜0.5 g) was heated to 120° C. for 1 h in an atmospheric pressure.
The product of example 11 was dried at 50° C. in a vacuum oven overnight, and analyzed by XRD.
Nateglinide (40 grams) Form delta (1.5% heptane) was dried in a stirred reactor (7-10 rpm) under 60 mmHg vacuum and at 60° C.

For series [2] the following is noted: by DSC, according to U.S. Pat. No. 5,463,116; cited from earlier work.
[3] abbreviates: heating under ambient or reduced pressure.

As to `CC(C)[C@H]1CC[C@H](C(=O)N[C@H](Cc2ccccc2)C(=O)O)CC1` [sigma], in series [1] (setting [3]), the “thermal stability (conversion to another form upon heating)” value is “thermally stable”.
Turning to `CC(C)[C@H]1CC[C@H](C(=O)N[C@H](Cc2ccccc2)C(=O)O)CC1` [acetonitrile solvate of Form Epsilon, nateglinide], in series [1] (setting [3]), the “form obtained upon drying / heating” value is on record as “Form B”.
In the case of `CC(C)[C@H]1CC[C@H](C(=O)N[C@H](Cc2ccccc2)C(=O)O)CC1` [Form B, nateglinide], the “stability of crystals during grinding” value in series [2] is “unstable and susceptible to change during grinding”.
As for `CC(C)[C@H]1CC[C@H](C(=O)N[C@H](Cc2ccccc2)C(=O)O)CC1` [delta], the “polymorph after drying in a stirred reactor” value in series [1] (60 mmHg vacuum, 60° C., 6 hours, 7-10 rpm, starting with 1.5% heptane) was “remained delta form”. The “polymorphic form after drying in a fluidized bed drier” value in series [1] (4 hours at 60° C., starting with about 3% heptane (wt/wt)) was “delta”.
`CC(C)[C@H]1CC[C@H](C(=O)N[C@H](Cc2ccccc2)C(=O)O)CC1` [nitromethane solvates of Form Epsilon, nateglinide]: the “form obtained upon drying / heating” value in series [1] (setting [3]) was “Forms H or P”.
Consider `CC(C)[C@H]1CC[C@H](C(=O)N[C@H](Cc2ccccc2)C(=O)O)CC1` [Form Ω, nateglinide], for which the “form by XRD after drying in a vacuum oven” value in series [1] (wet sample, 50° C., vacuum oven, overnight) was “mixture of Form omega and Form Z”.
